The text below walks through data of patent publication US10603289B2, “Process for the manufacture of ajoene derivatives” (DANMARKS TEKNISKE UNIVERSITET, priority 2010, dated 2020).

One assay has as its system P. aeruginosa PAO1. The format is in vivo. As to conditions: day three post-infection; E:Z 1:4 (FIG. 8). As to the method: Mice were sacrificed on day one or day three post-infection and the contents of bacteria in the lungs were determined. Open squares indicate bacterial lung content per lung for each individual mouse. The median values are indicated with a filled black square. The statistic significance of difference in clearance was tested by a Mann-Whitney U test (analysis of nonparametric data) and p-values for the difference at day one and day three were 0.9 and 0.002 respectively.
In this study ajoene was administered prophylactic and subsequently continued after infection. Injections were given subcutaneous in the peritoneum. We performed three individual in vivo treatment experiments with ajoene in the mouse model of pulmonary infection using the P. aeruginosa PAO1. BALB/c mice were intracheally challenged (at day 0) with alginate beads containing 1.5×10^8 CFU/ml P. aeruginosa. The two groups of mice were either untreated (placebo) or treated with ajoene 25 μg/g mouse once a day. The mice were given two days of prophylactic treatment or placebo prior to bacterial challenge. Treatment was continued for three days. […] When combining the experiments a significant difference on day three was seen (p<0.002) with a 500 fold difference in clearance between the groups (FIG. 7). This is concordant with the results obtained by Bjarnsholt et al (2005) in a similar lung infection model in with raw garlic extract was used as treatment [T. Bjarnsholt et al., Microbiology, 2005, 151, p. 3873-3880].
This highlights that a synthesis providing a sufficiently pure “crude” ajoene product is essential in order to avoid the use of HPLC purification, as this step has a detrimental effect on biological activity. […] (E,Z) ajoene having an E:Z ratio of 1:4 was used.

In the next assay the test system is wild-type P. aeruginosa. In words: Foreign-body (silicone tube implant) infection model. The format is in vivo, mice. The following applies: CFU per implant 72 hours after insertion. On the procedure: To examine the effect of a combination treatment with ajoene and tobramycin in vivo we used an foreign-body infection model [L. D. Christensen et al., Microbiology, 2007, 153, p. 2312-2320]. Silicone tube implants with a size of 4 mm (inner diameter 4 mm/outer diameter 6 mm) pre-colonized with wild-type P. aeruginosa, were inserted into the peritoneal cavity of mice. Treatments were injected subcutaneously every 24 hours, where ajoene and tobramycin treatment were initiated two days pre-insertion and 24 hours post-insertion, respectively. 72 hours after insertion the implants were removed from the mice and the number of colony-forming units per implant was determined. […] (E,Z) ajoene having an E:Z ratio of 1:4 was used.

Assay [1] has as its system biofilms of P. aeruginosa PAO1. In words: In vitro flow cell biofilm killing, live dead stains and CSLM. The format is cell-based. On the procedure: Dead cells are stained with the DNA stain PI (Dark grey/black). The biofilm were visualized with CSLM. C) Implant model treated with ajoene and tobramycin.
3873-3880]. It was however unknown what was the active ingredient in the garlic extract. Thus. biofilms of P. aeruginosa strain were either grown in the presence or absence of 100 μg/ml ajoene. At day three the biofilms were treated with 10 μg/ml tobramycin for 24 hours. […] 10 μg/ml tobramycin was therefore chosen for the present study.

For the molecule `C=CCSSC=CC[S+]([O-])CC=C` (centres unmarked) [95-99.5% purity ajoene], in the assay on P. aeruginosa PAO1, the “clearing the pulmonary infection, by ajoene purity” value was “effective at clearing the pulmonary infection”.

As to `NC[C@H]1O[C@H](O[C@H]2[C@H](O)[C@@H](O[C@H]3O[C@H](CO)[C@@H](O)[C@H](N)[C@H]3O)[C@H](N)C[C@@H]2N)[C@H](N)C[C@@H]1O` [tobramycin], the “clearing of implants, single treatment versus placebo group” value with wild-type P. aeruginosa is listed as “significant difference in clearing”. The “extent of killing, comparison of tobramycin concentrations” value in assay [1] (prior treatment study, 10 μg/ml, 100 μg/ml or 340 μg/ml) was “no difference in the extent of killing”. Also, the “killing of the biofilm bacteria, single agent” value in assay [1] (tobramycin or ajoene only) is “no or only minor killing”.

`C=CCSSC=CC[S+]([O-])CC=C` (centres unmarked) [very high purity ajoene]: in the assay on P. aeruginosa PAO1, the “clearing the pulmonary infection, by ajoene purity” value was “not effective at clearing the pulmonary infection”.
